Results: PubChem BioAssay AID1963843 (Molecular Pharmacology Branch, DTP, NCI, 2024)

System: 616215-338-R-J1-PDC complex spheroid viability
Test: Anticancer human tumor 616215-338-R-J1-PDC patient-derived colon adenocarcinoma cell line growth inhibition [POLQ]
Conditions: for IC50: curve of first compound; for viability, T/C: stronger effect = lower value
Protocol: Multicellular complex tumor spheroid response to Polymerase (POL) inhibitors (novobiocin, ART-558, RP6685) in combination with a variety of drugs and investigational agents in selected tumor cell lines
The POL inhibitors (novobiocin, ART-558, and RP6685) were evaluated both individually and in combination with standard of care and investigational anticancer small molecules within a complex spheroid model of solid tumors. . Complex spheroids include a stromal component modeled by human endothelial cells (HUVEC) and fibroblasts modeled by human mesenchymal stem cells (MSCs). The concentration ranges selected for each drug and investigational agent were based upon clinically achievable concentrations if the clinical Cmax of the agent was known.
Compounds. The drugs and investigational agents: novobiocin (NSC847541), ART-558 (NSC835418), RP-6685 (NSC848927), peposertib (NSC802822), ceralasertib (NSC780249), elimusertib (NSC800525), camonsertib (NSC841442), AZD-1390 (NSC803789), olaparib (NSC753686), talazoparib (NSC767125), rucaparib (NSC756644), sotorasib (NSC818433), MRTX-1133 (NSC836407), SN-38 (NSC673596), topotecan (NSC609699), epotoside (NSC141540), doxorubicin (NSC123127), gemcitabine (NSC613327), 5-fluorouracil (NSC19893), paclitaxel (NSC125973), vemurafenib (NSC761431), MSA-2 (NSC828583), SN-011 (NSC837082), adavosertib (NSC754352), prexasertib (NSC758257), carboplatin (NSC241240) and oxaliplatin (NSC266046), were obtained from the National Cancer Institute (NCI) Developmental Therapeutics Program Chemical Repository (21). The FDA-approved anticancer drug set is available from the Developmental Therapeutics Program at https://dtp.cancer.gov/organization/dscb/obtaining/. […] The stock solutions were prepared in dimethyl sulfoxide (DMSO, Sigma-Aldrich, St. Louis, MO, cat. D2650), except for the platinum compounds which were prepared in saline (Quality Biological, Gaithersburg, MD, cat. 114-055-101), at 800-fold the tested concentration and stored at -70 degrees C prior to their use. All drugs and investigational agents were tested over a range starting from a high concentration at or near the clinical Cmax and decreasing in half-log increments. If the clinical Cmax for an agent had not been determined, the highest concentration tested was 10 microM, except for SN-38, which was tested at a high concentration of 1 microM.
Cell Culture. All cells were maintained in an incubator at 37 degrees C and 5% CO2 with 95% humidity. The PDC lines were cultured according to standard operating procedures established by the NCI PDMR (https://pdmr.cancer.gov). Table 3 of the manuscript, lists the cell lines along with the number of the three cell types plated to form the mct-spheroids and media for tumor cell growth. After thawing, all PDC lines, except 997537-175-T-J1-PDC and 415267-285-R-J2-PDC, were cultured in Matrigel-coated flasks prepared with a working solution of 1X Ham's F-12 nutrient mix, without supplementation (Thermo Fisher Scientific, cat. 11765054), 100 U/mL penicillin-streptomycin (Thermo Fisher Scientific, cat. 15140122), and 2.5% Matrigel (Corning Inc., Corning, NY, cat. 354248) for the first three passages. The two PDC lines 997537-175-T-J1-PDC and 415267-285-R-J2-PDC were cultured on uncoated flasks. The 857933-349-R-J2-PDC line was cultured in 6C/Colon 1B media containing advanced DMEM/F-12 (Thermo Fisher Scientific, cat. 12634028), 10 mM HEPES (Thermo Fisher Scientific, cat. 15630080), 1X GlutaMAX supplement (Thermo Fisher Scientific, cat. 35050061), 0.1 mg/mL primocin (InvivoGen, San Diego, CA, cat. ant-pm-2), 10% defined fetal bovine serum, heat inactivated (HyClone Laboratories Inc., Logan, UT, cat. SH30070.03HI), 50% L-WRN conditioned media (ATCC, cat. CRL-3276), 1.25 mM N-Acetyl-L-cysteine (Sigma-Aldrich, cat. A9165), 10 mM nicotinamide (Sigma-Aldrich, cat. N0636), 1X B-27 supplement (Thermo Fisher Scientific, cat. 17504044), 1X N-2 supplement (Thermo Fisher Scientific, cat. […]
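Further: spheroids exposed to compounds for one week before readout.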
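Wherever viability, T/C is given: percent viability relative to DMSO vehicle wells taken as 100%.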

With `CCCS(=O)(=O)Nc1ccc(F)c(C(=O)c2c[nH]c3ncc(-c4ccc(Cl)cc4)cc23)c1F` + Cc1cccc(N(C)C(=O)C2C(O)CCN2c2nc(C)cc(C(F)(F)F)c2C#N)c1 the IC50 (second compound 0.0316 µM) was 5.76 µM, the IC50 (second compound 0.1 µM) was 5.71 µM and the IC50 (second compound 0.316 µM) was 5.24 µM. The IC50 (second compound 1 µM) was 5.51 µM, the IC50 (second compound 3.16 µM) was 5.31 µM and the IC50 (second compound 10 µM) was 4.29 µM. It also gave a viability, T/C (second compound 0.0316 µM, first compound 0.0316 µM) of 114%, a viability, T/C (second compound 0.0316 µM, first compound 0.1 µM) of 95.5% and a viability, T/C (second compound 0.0316 µM, first compound 0.316 µM) of 101%. It also gave a viability, T/C (second compound 0.0316 µM, first compound 1 µM) of 105%, a viability, T/C (second compound 0.0316 µM, first compound 3.16 µM) of 89.5% and a viability, T/C (second compound 0.0316 µM, first compound 10 µM) of 13.4%. The viability, T/C (second compound 0.1 µM, first compound 0.0316 µM) was 115%, the viability, T/C (second compound 0.1 µM, first compound 0.1 µM) was 109% and the viability, T/C (second compound 0.1 µM, first compound 0.316 µM) was 101%. For the same compound, the viability, T/C (second compound 0.1 µM, first compound 1 µM) was 108%, the viability, T/C (second compound 0.1 µM, first compound 3.16 µM) was 91% and the viability, T/C (second compound 0.1 µM, first compound 10 µM) was 11.2%. It also gave a viability, T/C (second compound 0.316 µM, first compound 0.0316 µM) of 112%, a viability, T/C (second compound 0.316 µM, first compound 0.1 µM) of 107% and a viability, T/C (second compound 0.316 µM, first compound 0.316 µM) of 99%. The viability, T/C (second compound 0.316 µM, first compound 1 µM) was 97.5%, the viability, T/C (second compound 0.316 µM, first compound 3.16 µM) was 83.4% and the viability, T/C (second compound 0.316 µM, first compound 10 µM) was 9.28%. The viability, T/C (second compound 1 µM, first compound 0.0316 µM) was 99.5%, the viability, T/C (second compound 1 µM, first compound 0.1 µM) was 101% and the viability, T/C (second compound 1 µM, first compound 0.316 µM) was 104%. It also gave a viability, T/C (second compound 1 µM, first compound 1 µM) of 105%, a viability, T/C (second compound 1 µM, first compound 3.16 µM) of 86.9% and a viability, T/C (second compound 1 µM, first compound 10 µM) of 10.2%. The viability, T/C (second compound 3.16 µM, first compound 0.0316 µM) was 114%, the viability, T/C (second compound 3.16 µM, first compound 0.1 µM) was 98.6% and the viability, T/C (second compound 3.16 µM, first compound 0.316 µM) was 99.4%. It also gave a viability, T/C (second compound 3.16 µM, first compound 1 µM) of 101%, a viability, T/C (second compound 3.16 µM, first compound 3.16 µM) of 83.2% and a viability, T/C (second compound 3.16 µM, first compound 10 µM) of 10%. For the same compound, the viability, T/C (second compound 10 µM, first compound 0.0316 µM) was 105%, the viability, T/C (second compound 10 µM, first compound 0.1 µM) was 100% and the viability, T/C (second compound 10 µM, first compound 0.316 µM) was 92.7%. It also gave a viability, T/C (second compound 10 µM, first compound 1 µM) of 98.1%, a viability, T/C (second compound 10 µM, first compound 3.16 µM) of 65.8% and a viability, T/C (second compound 10 µM, first compound 10 µM) of 7.05%.
